One may read the IC50 as the concentration that gives 50% inhibition. What is called solubility is the concentration that dissolves in the medium under given conditions.

One series concerns the target T1, PI3K alpha (Homo sapiens, UniProt P42336).
T1 construct: p85(iSH2) fusion partner (see partner chain) (N); His tag (C); made in house; host or cells: baculovirus; Tn5 (Trichoplusia ni) or TiniPro insect cells
The series can be described thus: PI3K alpha kinase assay (Kinase-Glo luminescence). Format: biochemical. A digest of the protocol: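 Luminescent ATP-depletion assay (Kinase-Glo) with 10 nM PI3Kα and 10 μg/mL phosphatidylinositol as lipid substrate at 1 μM ATP. Incubation lasts 60 min at room temperature.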
Background: In Kinase-Glo more light means more ATP remaining.

The target of another series is T2, PI3K delta (Homo sapiens, UniProt O00329).
T2 construct: for the full-length p110-d subunit are generated and fused by overlapping PCR; p85(iSH2) fusion partner (see partner chain) (N); His tag (C); made in house; host or cells: baculovirus; Tn5 (Trichoplusia ni) or TiniPro insect cells
The series can be described thus: PI3K delta kinase assay (Kinase-Glo luminescence). Format: biochemical. A digest of the protocol: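 Inhibition is derived from luminescent detection of unconsumed ATP. The reaction runs for one hour at ambient temperature and contains the δ isoform fusion protein, phosphatidylinositol substrate and low (1 μM) ATP. Eight compound concentrations are tested in single, and a 4-parameter logistic model is used to calculate IC50.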

For series [1], the system named is PKB Ser473 phosphorylation in Rat1-myr-HA-p110 beta cells. The series can be described thus: Reverse protein array assay, PKB Ser473 phosphorylation in Rat1-myr-p110 beta cells. Format: cell-based. Conditions: 0.5 h, pAkt Ser473, 30 minutes incubation, read-out: p-PKB IC50. Put shortly: (§1)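 Lysates were arrayed at four dilutions, and phospho-PKB Ser473 was quantified by relative fluorescence signal. They came from Rat1-myr-HA-p110 alpha, beta or delta cells exposed for 30 min at 37 °C to an 8-point compound series with 0.2% DMSO constant.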

For series [2], the system named is PKB Ser473 phosphorylation in Rat1-myr-HA-p110 alpha cells. In words: Reverse protein array assay, PKB Ser473 phosphorylation in Rat1-myr-p110 alpha cells. Type of series: cell-based. Conditions: 0.5 h, pAkt Ser473, 30 minutes compound incubation, read-out: p-PKB IC50. Put shortly:
as §1

The nature of a further series: Solubility at pH 6.8. Format: physicochemical. Put shortly: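 Solubility was measured at pH 6.8 following the cited Zhou et al. (2007) procedure.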
Where [3] appears, read: pH 6.8, aqueous buffer, thermodynamic from solid, read-out: solubility.

Converted amounts (≈) assume the structure as drawn. Read-outs that look alike come from different tables or passages of the source.

T2 sequence (O00329 with tags, fused parts or gaps limits assumed): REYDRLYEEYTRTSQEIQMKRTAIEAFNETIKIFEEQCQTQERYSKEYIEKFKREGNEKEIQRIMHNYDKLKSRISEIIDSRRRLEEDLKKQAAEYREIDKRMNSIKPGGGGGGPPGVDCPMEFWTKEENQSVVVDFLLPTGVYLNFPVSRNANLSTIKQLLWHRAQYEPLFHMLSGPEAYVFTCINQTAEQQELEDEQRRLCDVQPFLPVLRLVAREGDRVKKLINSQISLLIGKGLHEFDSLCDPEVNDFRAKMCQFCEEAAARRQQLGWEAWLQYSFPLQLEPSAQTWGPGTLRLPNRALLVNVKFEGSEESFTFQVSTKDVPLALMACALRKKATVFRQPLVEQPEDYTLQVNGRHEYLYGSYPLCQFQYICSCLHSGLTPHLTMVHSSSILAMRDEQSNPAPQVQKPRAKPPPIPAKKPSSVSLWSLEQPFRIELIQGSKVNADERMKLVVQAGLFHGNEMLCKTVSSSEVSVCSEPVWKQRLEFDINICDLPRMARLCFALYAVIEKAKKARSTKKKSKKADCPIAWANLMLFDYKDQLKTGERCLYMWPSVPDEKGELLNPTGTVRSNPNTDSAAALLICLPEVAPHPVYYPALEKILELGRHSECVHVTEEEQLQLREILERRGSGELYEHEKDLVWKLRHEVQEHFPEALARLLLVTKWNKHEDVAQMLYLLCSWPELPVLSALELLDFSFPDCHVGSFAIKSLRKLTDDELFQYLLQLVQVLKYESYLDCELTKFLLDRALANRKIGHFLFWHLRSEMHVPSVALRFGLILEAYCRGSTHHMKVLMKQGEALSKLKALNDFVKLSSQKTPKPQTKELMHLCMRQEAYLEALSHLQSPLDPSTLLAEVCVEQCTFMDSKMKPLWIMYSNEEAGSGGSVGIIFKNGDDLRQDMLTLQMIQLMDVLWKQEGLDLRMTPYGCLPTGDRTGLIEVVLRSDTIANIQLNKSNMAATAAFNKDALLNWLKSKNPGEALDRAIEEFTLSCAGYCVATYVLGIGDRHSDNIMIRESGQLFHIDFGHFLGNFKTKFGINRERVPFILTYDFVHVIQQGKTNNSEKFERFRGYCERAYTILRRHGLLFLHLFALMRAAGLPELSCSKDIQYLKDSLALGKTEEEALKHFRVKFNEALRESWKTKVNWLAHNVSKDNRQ
T1 sequence (P42336 with tags, fused parts or gaps limits assumed): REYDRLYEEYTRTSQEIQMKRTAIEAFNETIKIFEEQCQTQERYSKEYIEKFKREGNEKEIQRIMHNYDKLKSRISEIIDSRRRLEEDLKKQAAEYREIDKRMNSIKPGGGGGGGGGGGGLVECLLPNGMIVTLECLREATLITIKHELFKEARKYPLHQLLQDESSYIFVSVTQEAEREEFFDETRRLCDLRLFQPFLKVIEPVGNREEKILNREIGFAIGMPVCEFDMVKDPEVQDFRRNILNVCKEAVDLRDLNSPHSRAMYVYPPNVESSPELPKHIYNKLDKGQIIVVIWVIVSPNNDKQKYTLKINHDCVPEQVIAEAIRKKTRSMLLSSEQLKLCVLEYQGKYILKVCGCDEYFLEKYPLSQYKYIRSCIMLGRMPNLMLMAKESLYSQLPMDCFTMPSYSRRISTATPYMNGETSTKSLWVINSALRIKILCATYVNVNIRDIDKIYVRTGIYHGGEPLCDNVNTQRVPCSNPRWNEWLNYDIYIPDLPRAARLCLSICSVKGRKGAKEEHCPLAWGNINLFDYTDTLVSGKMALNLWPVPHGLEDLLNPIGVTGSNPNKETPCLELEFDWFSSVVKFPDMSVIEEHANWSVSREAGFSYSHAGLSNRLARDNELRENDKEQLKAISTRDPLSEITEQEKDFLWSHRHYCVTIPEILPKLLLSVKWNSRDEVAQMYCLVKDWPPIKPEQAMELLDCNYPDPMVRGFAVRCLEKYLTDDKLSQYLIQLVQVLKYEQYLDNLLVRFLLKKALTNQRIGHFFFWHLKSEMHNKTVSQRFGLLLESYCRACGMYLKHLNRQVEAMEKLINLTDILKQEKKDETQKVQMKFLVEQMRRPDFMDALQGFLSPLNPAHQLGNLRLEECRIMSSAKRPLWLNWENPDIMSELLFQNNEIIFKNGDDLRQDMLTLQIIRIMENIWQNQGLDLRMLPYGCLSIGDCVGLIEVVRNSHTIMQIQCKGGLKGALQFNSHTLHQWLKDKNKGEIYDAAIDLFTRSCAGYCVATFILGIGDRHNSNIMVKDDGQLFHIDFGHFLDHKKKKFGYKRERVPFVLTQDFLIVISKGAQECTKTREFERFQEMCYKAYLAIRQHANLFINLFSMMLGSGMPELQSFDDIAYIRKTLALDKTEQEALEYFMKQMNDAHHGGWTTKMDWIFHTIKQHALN

In the case of `Cc1nn(C)cc1-n1c(=O)n(C)c2cnc3ccc(-c4cccc(S(=O)(=O)N(C)C)c4)cc3c21` [Example 53.1, 3-[1-(1,3-Dimethyl-1H-pyrazol-4-yl)-3-methyl-2-oxo-2,3-dihydro-1H-imidazo[4,5-c]quinolin-8-yl]-N,N-dimethyl-benzenesulfonamide], the IC50 is 0.016 µM at PI3K alpha, 0.012 µM at PI3K delta, 0.043 µM in series [1] and 0.015 µM in series [2]. The solubility in “Solubility at pH 6.8” (setting [3]) was 0.003 mg/mL (≈ 6.3 µM).

As for `CCNc1cc(-c2ccc3ncc4c(c3c2)n(-c2c(C)nn(CC(=O)N(C)C)c2C)c(=O)n4C)cnc1C` [Example 87.5, 2-{4-[8-(5-Ethylamino-6-methyl-pyridin-3-yl)-3-methyl-2-oxo-2,3-dihydro-imidazo[4,5-c]quinolin-1-yl]-3,5-dimethyl-pyrazol-1-yl}-N,N-dimethyl-acetamide], the IC50 at PI3K alpha was determined as 0.043 µM; at PI3K delta, 0.035 µM; in series [1], 0.407 µM; in series [2], 0.237 µM. The solubility in “Solubility at pH 6.8” (setting [3]) is over 0.513 mg/mL.

As to `COCc1cncc(-c2ccc3ncc4c(c3c2)n(-c2cn(C)nc2C)c(=O)n4C)c1` [Example 54.1, 1-(1,3-Dimethyl-1H-pyrazol-4-yl)-8-(5-methoxymethyl-pyridin-3-yl)-3-methyl-1,3-dihydro-imidazo[4,5-c]quinolin-2-one], the concentration for half-maximal inhibition (IC50) stood at 0.017 µM at PI3K alpha, 0.019 µM on PI3K delta, 0.092 µM in series [1] and 0.095 µM in series [2]. In “Solubility at pH 6.8” (setting [3]), the solubility turned out to be 0.164 mg/mL (≈ 396 µM).

Turning to `COc1ncc(-c2ccc3ncc4c(c3c2)n(-c2cn(C)nc2C)c(=O)n4C)c(OC)n1` [Example 234.2, 8-(2,4-Dimethoxy-pyrimidin-5-yl)-1-(1,3-dimethyl-1H-pyrazol-4-yl)-3-methyl-1,3-dihydro-imidazo[4,5-c]quinolin-2-one], the IC50 on PI3K alpha is under 0.003 µM; on PI3K delta, under 0.003 µM; in series [1], 0.026 µM; in series [2] it was 0.013 µM. For the same compound, in “Solubility at pH 6.8” (setting [3]), the solubility was found to be 0.022 mg/mL (≈ 51 µM).

Consider `Cc1nn(C)cc1-n1c(=O)n(C)c2cnc3ccc(-c4ccc(C(N)=O)cc4)cc3c21` [Example 41, 4-[1-(1,3-Dimethyl-1H-pyrazol-4-yl)-3-methyl-2-oxo-2,3-dihydro-1H-imidazo[4,5-c]quinolin-8-yl]-benzamide], for which the IC50 at PI3K alpha is under 0.009 µM; on PI3K delta it was 0.082 µM; in series [1], 0.037 µM; in series [2] it was 0.048 µM. The solubility in the series “Solubility at pH 6.8” (setting [3]) was 0.014 mg/mL (≈ 33.9 µM).

For `Cc1nn(C)cc1-n1c(=O)n(C)c2cnc3ccc(-c4ccc5c(c4)CC(=O)N5)cc3c21` [Example 49, 1-(1,3-Dimethyl-1H-pyrazol-4-yl)-3-methyl-8-(2-oxo-2,3-dihydro-1H-indol-5-yl)-1,3-dihydro-imidazo[4,5-c]quinolin-2-one], the IC50 on PI3K alpha was 0.047 µM; on PI3K delta it was 0.106 µM; in series [1] it was 0.152 µM; in series [2], 0.051 µM. Besides, in the series “Solubility at pH 6.8” (setting [3]), the solubility came out at 0.033 mg/mL (≈ 77.7 µM).

On to `Cc1nn(C)cc1-n1c(=O)n(C)c2cnc3ccc(-c4cnc5c(c4)nnn5C)cc3c21` [Example 72, 1-(1,3-Dimethyl-1H-pyrazol-4-yl)-3-methyl-8-(3-methyl-3H-[1,2,3]triazolo[4,5-b]pyridin-6-yl)-1,3-dihydro-imidazo[4,5-c]quinolin-2-one], for which the IC50 at PI3K alpha was 0.029 µM; on PI3K delta it was 0.029 µM; in series [1], 0.299 µM; in series [2], 0.166 µM. For the same compound, the solubility in the series “Solubility at pH 6.8” (setting [3]) came out at 0.037 mg/mL (≈ 87 µM).

As for `CCN(C)C(=O)Cn1cc(-n2c(=O)n(C)c3cnc4ccc(-c5cncc(OC(C)C)c5)cc4c32)c(C)n1` [Example 58.5, N-Ethyl-2-{4-[8-(5-isopropoxy-pyridin-3-yl)-3-methyl-2-oxo-2,3-dihydro-imidazo[4,5-c]quinolin-1-yl]-3-methyl-pyrazol-1-yl}-N-methyl-acetamide], the IC50 at PI3K alpha came out at 0.007 µM; on PI3K delta, 0.039 µM; in series [1] it was 0.102 µM; in series [2] it was 0.053 µM. Further, the solubility in the series “Solubility at pH 6.8” (setting [3]) came out at 0.466 mg/mL (≈ 907 µM).

With `COc1ncc(-c2ccc3ncc4c(c3c2)n(-c2cn(C)nc2C)c(=O)n4C)cc1C(N)=O` [Example 125.2, 5-[1-(1,3-Dimethyl-1H-pyrazol-4-yl)-3-methyl-2-oxo-2,3-dihydro-1H-imidazo[4,5-c]quinolin-8-yl]-2-methoxy-nicotinamide], the IC50 was determined as 0.05 µM on PI3K alpha, 0.04 µM at PI3K delta, 0.187 µM in series [1] and 0.082 µM in series [2]. The compound also had a solubility in the series “Solubility at pH 6.8” (pH 6.8) of 0.002 mg/mL (≈ 4.51 µM).

For `CCn1cc(-n2c(=O)n(C)c3cnc4ccc(-c5cnc(N)c(COC)c5)cc4c32)c(C)n1` [Example 168.2, 8-(6-Amino-5-methoxymethyl-pyridin-3-yl)-1-(1-ethyl-3-methyl-1H-pyrazol-4-yl)-3-methyl-1,3-dihydro-imidazo[4,5-c]quinolin-2-one], the IC50 on PI3K alpha is 0.023 µM; at PI3K delta it was 0.011 µM; in series [1] it was 0.018 µM; in series [2], 0.012 µM. Further, in the series “Solubility at pH 6.8” (setting [3]), the solubility turned out to be 0.024 mg/mL (≈ 54.1 µM).

On to `CCn1cc(-n2c(=O)n(C)c3cnc4ccc(-c5cnc(NC)nc5OC)cc4c32)c(C)n1` [Example 236, 1-(1-Ethyl-3-methyl-1H-pyrazol-4-yl)-8-(4-methoxy-2-methylamino-pyrimidin-5-yl)-3-methyl-1,3-dihydro-imidazo[4,5-c]quinolin-2-one], for which the IC50 was 0.015 µM at PI3K alpha, 0.007 µM on PI3K delta, 0.006 µM in series [1] and under 0.005 µM in series [2]. Also, the solubility in the series “Solubility at pH 6.8” (pH 6.8) came out at 0.002 mg/mL (≈ 4.5 µM).

Consider `Cc1ncc(-c2ccc3ncc4c(c3c2)n(-c2cn(C)nc2C)c(=O)n4C)cc1OC(CF)CF` [Example 189, 1-(1,3-Dimethyl-1H-pyrazol-4-yl)-8-[5-(2-fluoro-1-fluoromethyl-ethoxy)-6-methyl-pyridin-3-yl]-3-methyl-1,3-dihydro-imidazo[4,5-c]quinolin-2-one], for which the IC50 at PI3K alpha is 0.004 µM; at PI3K delta, 0.006 µM; in series [1], under 0.005 µM; in series [2], under 0.005 µM. For the same compound, the solubility in “Solubility at pH 6.8” (setting [3]) turned out to be 0.015 mg/mL (≈ 31.3 µM).

`Cc1nn(C)cc1-n1c(=O)n(C)c2cnc3ccc(-c4cncc(C5(O)CCCC5)c4)cc3c21` [Example 218, 1-(1,3-Dimethyl-1H-pyrazol-4-yl)-8-[5-(1-hydroxy-cyclopentyl)-pyridin-3-yl]-3-methyl-1,3-dihydro-imidazo[4,5-c]quinolin-2-one]: the IC50 at PI3K alpha was found to be 0.013 µM; at PI3K delta, 0.006 µM; in series [1], 0.027 µM; in series [2], 0.022 µM. In “Solubility at pH 6.8” (setting [3]), the solubility worked out at 0.014 mg/mL (≈ 30.8 µM).

Regarding `COc1ccc(-c2ccc3ncc4c(c3n2)n(-c2cn(C)nc2C)c(=O)n4C)cc1OC` [Example 250, 8-(3,4-Dimethoxy-phenyl)-1-(1,3-dimethyl-1H-pyrazol-4-yl)-3-methyl-1,3-dihydro-1,3,5,9-tetraaza-cyclopenta[a]naphthalen-2-one], the concentration for half-maximal inhibition (IC50) at PI3K alpha is 0.005 µM; at PI3K delta it was 0.017 µM; in series [1], 0.097 µM; in series [2], 0.041 µM. The solubility in “Solubility at pH 6.8” (setting [3]) was 0.005 mg/mL (≈ 11.6 µM).

In the case of `CNc1ncc(-c2ccc3ncc4c(c3c2)n(-c2cc(C)nn2C)c(=O)n4C)cc1Cl` [Example 146.5, 8-(5-Chloro-6-methylamino-pyridin-3-yl)-1-(2,5-dimethyl-2H-pyrazol-3-yl)-3-methyl-1,3-dihydro-imidazo[4,5-c]quinolin-2-one], the IC50 stood at 0.009 µM on PI3K alpha, 0.003 µM at PI3K delta, 0.029 µM in series [1] and 0.012 µM in series [2]. In addition, the solubility in “Solubility at pH 6.8” (setting [3]) was found to be 0.003 mg/mL (≈ 6.91 µM).

On to `CNc1ncc(-c2ccc3ncc4c(c3c2)n(-c2c(C)nn(C)c2C)c(=O)n4C)cc1F` [Example 141.1, 8-(5-Fluoro-6-methylamino-pyridin-3-yl)-3-methyl-1-(1,3,5-trimethyl-1H-pyrazol-4-yl)-1,3-dihydro-imidazo[4,5-c]quinolin-2-one], for which the IC50 on PI3K alpha was determined as 0.817 µM; on PI3K delta, 0.044 µM; in series [1] it was 0.162 µM; in series [2] it was 0.15 µM. Further, the solubility in “Solubility at pH 6.8” (setting [3]) is over 0.431 mg/mL.

For `CCn1cc(-n2c(=O)n(C)c3cnc4ccc(-c5cnc(COC)c(OC)c5)cc4c32)c(C)n1` [Example 195.3, 1-(1-Ethyl-3-methyl-1H-pyrazol-4-yl)-8-(5-methoxy-6-methoxymethyl-pyridin-3-yl)-3-methyl-1,3-dihydro-imidazo[4,5-c]quinolin-2-one], the half-inhibitory concentration (IC50) at PI3K alpha turned out to be 0.048 µM; at PI3K delta, 0.034 µM; in series [1] it was 0.184 µM; in series [2], 0.092 µM. The solubility in “Solubility at pH 6.8” (setting [3]) is over 0.459 mg/mL.

These data come from patent US20140005163A1 (NOVARTIS AG, priority 2010, published 2014).
